In patent US8173808B2, “Substituted naphthalenyl-pyrimidine compounds” (ArQule, Inc., priority 2009, dated 2012):

Experiments:
Conditions in all cases: class symbol for inhibition
FGFR2 kinase = FGFR2 kinase fluorescent ELISA assay; assay type: biochemical
Experimental: A fluorescent ELISA assay was developed to identify and characterize inhibitors of FGFR2 kinase. This heterogeneous assay utilizes a biotinylated peptide with a tyrosine motif as a substrate and an anti-phospho-tyrosine antibody to measure phosphorylation of the substrate. The reaction is initiated by adding test compound, 37 uM Pyk2 substrate (Midwest Biotech, cat. #MBT2383) and 12.5 μM ATP (Roche, cat. #11 140 965 001), and 0.5 μM FGFR2 enzyme (Millipore, cat. #14-742) sequentially to a non-binding polypropylene V-well plate. All reagents are in assay buffer consisting of: 50 mM Tris-HCL, 0.02 mg/mL BSA, 10 mM MgCl2, 0.1 mM Na3VO4, 1 mM EGTA, 75 μM ATP, 0.01% NP-40, 2 mM DTT, 10% Glycerol. The reaction is incubated for 60 minutes. As the reaction proceeds, FGFR2 phosphorylates tyrosines in the peptide. The reaction mixture is then moved to a blocked streptavidin coated Nunc Maxisorb plate (coated with 100 ng streaptavidin from Pierce (cat #15-124) per well) allowing for the capture of the biotinylated peptide. Peptide is captured for 30 minutes at room temperature, the phosphorylation of peptide continues during this phase. The reaction is stopped by washing the Streptavidin plate 6 times with TBST. Phosphorylated peptide is detected by adding anti-phospho tyrosine antibody (purchased from Cell Signaling, cat. #9411, diluted 1:3000), unbound antibody is removed by washing 6 times with TBST. Secondary detection is performed using Alkaline Phosphatase tagged goat anti-mouse antibody (purchased from Pierce, cat. #31320, diluted 1:4000) for one hour. Unbound secondary antibody is removed by washing 6 times with TBST.
The fluorescent readout is initiated by the addition of Promega Attophos substrate (purchased from Promega; Kit catalog number: S1000, dilution=6 mg/10 mL), which when dephosphorylated by Alkaline phosphatase emits a fluorescent signal of […] when excited by a signal […]. This reading is done on the Perkin Elmer Envision system. Compounds which prevent the FGFR2 from phosphorylating the peptide result in a lower fluorescent signal. The signal is directly proportional to the activity of FGFR2 and compound inhibition of FGFR2 is monitored by a decrease in signal.

[1] = biological target: full length inactive AKT1 protein (Homo sapiens, UniProt P31749); assay: AKT activity; thermal shift binding assay
Chain of full length inactive AKT1 protein (P31749 whole entry): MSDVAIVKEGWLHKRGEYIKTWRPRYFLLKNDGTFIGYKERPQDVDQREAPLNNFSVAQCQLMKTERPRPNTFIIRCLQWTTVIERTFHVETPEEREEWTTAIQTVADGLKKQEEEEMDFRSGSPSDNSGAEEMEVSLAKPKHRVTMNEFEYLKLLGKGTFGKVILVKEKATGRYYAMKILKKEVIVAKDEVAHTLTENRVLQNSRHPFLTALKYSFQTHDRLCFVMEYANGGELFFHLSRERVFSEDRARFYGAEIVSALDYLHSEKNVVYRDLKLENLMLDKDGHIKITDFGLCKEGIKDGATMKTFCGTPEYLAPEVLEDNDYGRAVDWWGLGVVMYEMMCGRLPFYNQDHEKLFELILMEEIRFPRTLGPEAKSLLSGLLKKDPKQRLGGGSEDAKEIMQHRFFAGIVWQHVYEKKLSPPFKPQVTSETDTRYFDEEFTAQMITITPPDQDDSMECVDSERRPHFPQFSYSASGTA
Experimental: Aliquots of compounds in DMSO (1 μL @ 375 μM) were placed in the V bottom 96 well PCR plate, and incubated for 30 minutes with 24 μL of AKT1 protein in 25 mM TRIS buffer pH 7.5, 100 mM NaCl, 0.1% 2-mercaptoethanol, pre-mixed with environmentally sensitive fluorescent dye Sypro Orange (12.5×). The plates were centrifuged for […] @ 2000 rpm and 25° C. before the analysis on the IQ5 Real time PCR machine (Biorad). The thermal stability of the protein-ligand complex was monitored by changes in Sypro Orange fluorescence while subjecting the binding mixture to a temperature gradient of 30 to 75° C. at 1° C./min heating rate. Shifts in the protein melting temperature (ΔTm) greater than 0.6° C. compared to the protein alone were indicative of the inhibitor binding. Dissociation constants (Kd's) for the inhibitors were calculated from the melting curves as described in Mei-Chu-Lo et al., Anal.Biochem., 332: 153, 2004.

p70S6K = biological target: T1, p70S6K (Homo sapiens, UniProt P23443); assay: p70S6 kinase activity assay (HTRF); assay type: biochemical
T1 construct: purchased Upstate/Millipore
T1 sequence (P23443 whole entry): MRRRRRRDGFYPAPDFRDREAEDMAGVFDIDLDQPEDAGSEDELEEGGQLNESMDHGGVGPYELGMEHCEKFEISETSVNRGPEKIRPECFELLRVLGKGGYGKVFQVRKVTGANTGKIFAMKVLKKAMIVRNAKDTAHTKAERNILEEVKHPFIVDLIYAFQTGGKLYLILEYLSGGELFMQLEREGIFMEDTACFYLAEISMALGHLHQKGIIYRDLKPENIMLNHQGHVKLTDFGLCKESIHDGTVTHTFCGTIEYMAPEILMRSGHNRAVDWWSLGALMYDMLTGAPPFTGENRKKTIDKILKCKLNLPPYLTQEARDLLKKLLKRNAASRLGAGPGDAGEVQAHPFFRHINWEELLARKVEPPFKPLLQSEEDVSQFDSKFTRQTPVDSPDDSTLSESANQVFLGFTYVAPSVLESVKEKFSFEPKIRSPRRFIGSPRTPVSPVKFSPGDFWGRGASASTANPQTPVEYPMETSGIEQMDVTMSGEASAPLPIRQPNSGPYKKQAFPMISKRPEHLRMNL
Experimental: p70S6K activity was assayed using Cisbio's homogeneous time-resolved fluorescence (HTRF®) technology. The extent of phosphorylation of the biotinylated peptide substrate STK-S3 is determined using a phospho-specific STK Antibody labeled with Eu^3+-cryptate and streptavidin-XL665 that will bind to the biotin on the peptide. When in close proximity, excitation of the Eu^3+ cryptate donor fluorophore results in fluorescence resonance energy transfer (FRET) to the XL665 acceptor fluorophore and the emission signal from XL665 is measured.
The assay is performed using reagents from the HTRF® KinEASE™-STK kit from Cisbio including enzymatic buffer (50 mM HEPES pH7, 0.02% NaN3, 0.01% BSA, and 0.1 mM Na3VO4), STK-S3 substrate-biotin, Eu^3+-Cryptate labeled STK antibody, Streptavidin-XL665, and detection buffer (50 mM HEPES pH 7, 0.1% BSA, 0.8M KF, and 20 mM EDTA). Test inhibitors and controls (staurosporine) are prepared at 5× the desired final concentration. Test compound (5.0 μL), p70S6 (10 μL) from Upstate/Millipore (final concentration is 2.5 ng/well), and 10 μL substrate/ATP are added to each well of a reaction plate (Corning 96-well half-area solid black nonbinding surface plate). All reaction components are diluted in enzymatic buffer supplemented with 2 mM MgCl2 and 1 mM DTT. The final concentration of STK-S3 substrate is 500 nM and the final concentration of ATP is 100 μM.

Substance	FGFR2 kinase activity (FGFR2 kinase)	AKT activity [1]	p70S6 kinase activity (p70S6K)
N-(3-(3-benzoyl-1H-indol-4-ylamino)phenyl)-3-(pyridin-3-yl)propanamide [Compound 1a]	− (A negative sign indicates that inhibition is less than 25%)	+ (A positive sign indicates that inhibition is greater or equal to 25%)	+ (A positive sign indicates that inhibition is greater or equal to 25%)
N-(3-(5-benzoyl-7-methyl-7H-pyrrolo[2,3-d]pyrimidin-4-ylamino)phenyl)acetamide [Compound 6a]	− (A negative sign indicates that inhibition is less than 25%)	+ (A positive sign indicates that inhibition is greater or equal to 25%)	− (A negative sign indicates that inhibition is less than 25%)
N-(3-(5-benzoyl-7H-pyrrolo[2,3-d]pyrimidin-4-ylamino)phenyl)acetamide [Compound 9a]	− (A negative sign indicates that inhibition is less than 25%)	+ (A positive sign indicates that inhibition is greater or equal to 25%)	− (A negative sign indicates that inhibition is less than 25%)
N-(3-(5-benzoyl-7H-pyrrolo[2,3-d]pyrimidin-4-ylamino)phenyl)-2-(dimethylamino)acetamide [Compound 7a]	− (A negative sign indicates that inhibition is less than 25%)	− (A negative sign indicates that inhibition is less than 25%)	+ (A positive sign indicates that inhibition is greater or equal to 25%)
(4-(3-aminophenylamino)-7H-pyrrolo[2,3-d]pyrimidin-5-yl)(phenyl)methanone [Compound 5a]	− (A negative sign indicates that inhibition is less than 25%)	+ (A positive sign indicates that inhibition is greater or equal to 25%)	+ (A positive sign indicates that inhibition is greater or equal to 25%)
3-acetamido-N-(3-(5-benzoyl-7H-pyrrolo[2,3-d]pyrimidin-4-ylamino)phenyl)propanamide [Compound 4a]	− (A negative sign indicates that inhibition is less than 25%)	− (A negative sign indicates that inhibition is less than 25%)	+ (A positive sign indicates that inhibition is greater or equal to 25%)
N-(3-(5-benzoyl-7H-pyrrolo[2,3-d]pyrimidin-4-ylamino)phenyl)-4-(dimethylamino)butanamide [Compound 3a]	− (A negative sign indicates that inhibition is less than 25%)	− (A negative sign indicates that inhibition is less than 25%)	+ (A positive sign indicates that inhibition is greater or equal to 25%)
2-acetamido-N-(3-(5-benzoyl-7H-pyrrolo[2,3-d]pyrimidin-4-ylamino)phenyl)acetamide [Compound 2a]	− (A negative sign indicates that inhibition is less than 25%)	− (A negative sign indicates that inhibition is less than 25%)	+ (A positive sign indicates that inhibition is greater or equal to 25%)
N-(3-(5-benzoyl-7H-pyrrolo[2,3-d]pyrimidin-4-ylamino)phenyl)-5-(pyrrolidin-1-yl)pentanamide [Compound 8a]	+ (A positive sign indicates that inhibition is greater or equal to 25%)	+ (A positive sign indicates that inhibition is greater or equal to 25%)	− (A negative sign indicates that inhibition is less than 25%)
N^1-(3-(5-benzoyl-7H-pyrrolo[2,3-d]pyrimidin-4-ylamino)phenyl)succinamide [Compound 10a]	+ (A positive sign indicates that inhibition is greater or equal to 25%)	− (A negative sign indicates that inhibition is less than 25%)	− (A negative sign indicates that inhibition is less than 25%)
